Results from patent publication US9358226B2, “Triarylmethane analogs and their use in treating cancers” (Emory University, priority 2007, dated 2016).
Like-named read-outs stand apart in the source and are kept apart here.

Key:
[1] = system: P. falciparum D6 (Chloroquine Sensitive); assay: Malaria model, chloroquine sensitive P. falciparum; assay type: cell-based
Method: (§1) The compounds were tested in a malaria model using both chloroquine sensitive and multidrug resistant P. falciparum. The malaria model was the same as published in JAC Advance Access published online on Jul. 30, 2008, Journal of Antimicrobial Chemotherapy, doi:10.1093/jac/dkn315, the contents of which are hereby incorporated by reference, and the data is summarized in the table below.
(§2) Briefly, the assay involves exposing both chloroquine sensitive and multidrug resistant P. falciparum to the compounds. After one hour of exposure to the highest concentration of the compound, followed by removal of the compound, the growth of all stages of P. falciparum was observed. The reduction in the growth stages was then compared with untreated control parasites. […] The presence of strong inhibition (defined herein as 10% growth) of all parasite stages was evaluated when the parasites were exposed to various concentrations of various compounds.

[2] = system: P. falciparum Dd2 (Multidrug Resistant); assay: Malaria model, multidrug resistant P. falciparum; assay type: cell-based
Method: as §1, §2

[3] = system: leukemia and lymphoma cell lines; assay: Cell growth inhibition in leukemia and lymphoma cell lines; assay type: cell-based
[4] = ESR spectrum with superoxide dismutase; settings: room temperature ESR, conditions as in Li et al.
Method: Li used ESR to confirm the production of NADPH-dependent.O2—by isolated endosomes (Li et al., Molecular and Cellular Biology, January 2006, p. 140-154, 26(1):140-154 (2006)). ESR assays were conducted at room temperature using a Bruker model EMX ESR spectrometer (Bruker). Vesicular fractions from each sample were mixed with the spin trap, 50 mM 5,5-dimethyl-1-pyrroline N-oxide (DMPO), in a total volume of 500 μl of PBS, pH 7.4. This solution contained iminodiacetic acid-chelating resin (10 ml/liter; Sigma-Aldrich). The reaction was initiated by adding NADPH to 100 μM and was immediately placed into the ESR spectrometer. DMPO-hydroxyl radical adduct formation was assayed for 10 min. Instrument settings were as follows: receiver gain, 1×10^6; modulation frequency, 100 kHz; microwave power, 40.14 mW; modulation amplitude, 1.0 G; and sweep rate, 1 G/s.

T. brucei = assay: Parasitemia in mice injected with T. brucei; assay type: in vivo
Method: In one study, the parasite was T. brucei. Mice were injected with parasites (5,000 parasites/mouse), and injected (s.c) with imipramine blue (1 mg/mice/day) starting from the day the mice were injected with parasites. The parasitemia level in blood was counted on each following day.
The experiment was repeated with IV administration of imipramine blue (100 μg of imipramine blue). […] Accordingly, it is important to find a therapeutic window (where treatment of parasitemia can be effected, without unwanted toxic effects). This therapeutic window is in the range of between about 150 and 250 μg.

myeloma cells [5] = assay: AnnexinV staining and cell cycle analysis by flow cytometry; assay type: cell-based
Method: (§3) Imipramine blue was obtained from the department of dermatology, Emory University. MTT assays for myeloma cells (MM.1S, MM.1R, RPMI8226, and U266) were used to evaluate the cell viability. AnnexinV staining and cell cycle analysis was done by flow cytometry to assess the level of apoptosis and analyze cell cycle arrest. Western blotting was performed using antibodies to analyze the impact of imipramine blue on various targets. Bone marrow from myeloma patients were obtained with consent from the Winship Cancer Institute.

HIF2a = HIF2a expression model (quantitative RT-PCR); assay type: cell-based; settings: WM35 PKB cells, 5 micromolar, 24 hours
Method: In this expression model, WM35 PKB cells are exposed to 5 micromolar of test compounds for 24 hours. At the end of this period, cells are harvested for RNA, which is then reverse transcribed into cDNA, and levels of HIF2a message are quantified using quantitative RT-PCR and corrected for a housekeeping RNA message.

myeloma cells [6] = assay: Western blotting of myeloma cells; assay type: cell-based
Method: as §3

[7] = system: CD38 positive population of primary cells from myeloma patients; assay: Primary cells from myeloma patients, cell killing; assay type: cell-based, human; settings: alone as a single agent or in combination with bortezomib
Method: as §3

[8] = system: bloodstream form of T. brucei; assay: Bloodstream form of T. brucei, live cells, overnight treatment; assay type: cell-based; settings: at 500 nm
Method: These and other compounds were tested on live cells.
The experiment was conducted with one million cells of the bloodstream form of T. brucei. After over night treatment with different compounds (at concentrations of 50 and 100 μmolar), cells were counted and plotted with controls.

[9] = system: myeloma cells (MM.1S, MM.1R, RPMI8226, and U266); assay: MTT cell viability assay, myeloma cells; assay type: cell-based
Method: as §3

Leishmania amazonensis = assay: Leishmaniasis model, in vitro promastigotes, parasites/mL; assay type: cell-based; settings: for activity in first experiment: 1 and 0.1 mcM (ethanol 0.1 and 0.01%)
Method: The experiments were started using water as a solvent for the triarylmethanes (TPM, standing for triphenylmethane). However, water was not an effective solvent, so ethanol was substituted. Ethanol is toxic to leishmania, so a control group was tested with a higher ethanol concentration than that present on the TPM groups.
Each of FIGS. 4-7 has five or six groups with 50, 10, 1 and 0.1 mcM (micromolar) of TPMs (1, 2, 3 and 5) in ethanol, and two control groups: Ethanol 5% (50 mcM) and positive control.
The number of parasites was counted only after 48 hours. Again, an ethanol control at 0.1% was used.
The IC50 was calculated by the method described by Hills et al. (18) and Huber and Koella (19). Briefly, Hills proposed finding two concentrations, X1 and X2, such that the parasite density, Y1, at concentration X1 (and all lower concentrations) was more than half of the density found in the control, Y0, and that the parasite density, Y2, at concentration X2 (and all higher concentrations) was less than half of Y0. The IC50 was then found by linear extrapolation between X1 and X2: log(IC50)=log(X1)|[(Y1−Y0/2)/(Y1−Y2)][ log(X2)−log(X1)].
Compounds TPM 6 (MW=400.60), TPM 7 (MW=672.86), TPM 9 (MW=521.76) and TPM 10 (MW=662.95) were evaluated with the same methodology. They were tested using a maximum of 1% of ethanol in each treatment group. The ethanol control was also evaluated with the same concentration (1%).
The treatment groups were TPM 6 at a dosage of 0.05; 0.01; 0.005 and 0.001 mcM.

ang-2 mRNA = assay: Quantitative reverse transcription-PCR for ang-2 in bEnd.3 cells; assay type: cell-based, murine; settings: 10 μM, 6.5 hours
Method: bEnd.3 cells were seeded equally into six T-75 flasks and 24 hours later were treated with 0, 1, 5, 10, 15, and 20 μM concentrations of gentian violet (Sigma-Aldrich, no. G2039) in ethanol for 6.5 hours. RNA was extracted and purified using TRI reagent (Sigma-Aldrich, T9424) and measured using spectrophotometer (Perkin-Elmer UV/VIS, Wellesley, Mass.). RNA (1 μg) was used for DNase Amplification (Invitrogen, no. 18068-015, Carlsbad, Calif.) followed by first-strand synthesis for reverse transcription-PCR (Invitrogen SuperScript, no. 12371-019). 96-well Optical Reaction Plate (ABI PRISM, no. 128, Applied Biosystems, Foster City, Calif.) was used for the reverse transcription-PCR reaction. A measure of 2.5 μl of template, which had been diluted 1:10 in crosslinked water, was used in each well and the experiment was performed in triplicate. Ang pt2 (Applied Biosystems, Taqman Gene Expression Assay, Mm00545822_ml) and 18S (Applied Biosystems Taqman Gene Expression Assay, Hs99999901_sl) primers were used along with crosslinked molecular grade water (Cellgro, Mediatech, Inc., Herndon, Va.) and master mix (Applied Biosystems TaqMan Fast Universal PCR Master Mix (2^x)). The reaction was run on the 7900 Applied Biosystems Reader for Absolute Quantification for 96-well plates. C values were analyzed by ΔΔCt method, and the standard error of the mean was calculated (FIG. 3b). The same protocol was used for treatment with brilliant green (Sigma, no. B6756), except that the concentrations used were 0, 0.1, 0.25, 0.5, and 0.75 μM (FIG. 3a).

[10] = 48 hours, linear extrapolation method of Hills
[11] = summary table of experiments 1-4

`CCN(CC)CCCC(C)Nc1ccnc2cc(Cl)ccc12` (stereo not drawn) [Chloroquine, reference compound] gave an IC50 ([1]; Plasmodium falciparum, D6, read-out: IC50 (nM) vs P. falciparum D6 (Chloroquine Sensitive)) of 7.9 nM and an IC50 ([2]; Plasmodium falciparum, DD2, read-out: IC50 (nM) vs P. falciparum Dd2 (Multidrug Resistant)) of 140 nM.
For `CCN(CC)c1ccc(C(c2ccc(N(CC)CC)cc2)=c2ccc3c(c2)CCc2ccccc2[N+]=3CCCN(C)C)cc1` [TPM 2], the cell growth [3] was “induced cell growth inhibition”, the “radical formation with superoxide (ESR)” value [4] was “appear to form a radical by reacting with superoxide” and the lethality to mice (T. brucei; 1 mg IV) was “killed the mice”. For the same molecule, the decrease in parasitemia (T. brucei; IV, 100 μg, mouse model) was 70%, the cell cycle profile (myeloma cells [5]; MM.1S cells) was “induces both cell cycle arrests as well as apoptosis” and the “apoptosis by annexin V staining” value (myeloma cells [5]; similar concentrations (6 uM to 10 μM)) was “induced to undergo apoptosis”. For the same molecule, the “inhibition of HIF2a expression” value (HIF2a) was “around 90%”, the “cleavage of procaspases (caspase 8, 9, 3 and PARP)” value (myeloma cells [6]; 0.5 μM to 10 μM, about 48 hrs) was “extensively cleaved” and the phos-AKT level (myeloma cells [6]; MM.1S) was “not significantly reduced”. For the same molecule, the “phos-p53 and GADD45 levels” value (myeloma cells [6]; MM.1S) was “upregulaed”, the “cell killing of CD38 positive population” value [7] was “very significant cell killing” and the “cell toxicity to trypanosome toxicity” value [8] was “favorable”. For the same molecule, the “growth advantage by cytokines IL-6 and IGF1” value ([9]; MM.1S cells) was “overcomes the growth advantage”, the “combination with bortezomib or perifosine” value ([9]; myeloma cells) was “additive benefit in combination” and the growth inhibition ([9]; treated up to 72 hrs, between 6 uM to 10 μM) was “more than 80%”. For the same molecule, the IC50 ([1]; Plasmodium falciparum, D6; read-out: IC50 (nM) vs P. falciparum D6 (Chloroquine Sensitive)) was ~2500 nM and the IC50 ([2]; Plasmodium falciparum, DD2; read-out: IC50 (nM) vs P. falciparum Dd2 (Multidrug Resistant)) was 826 nM.
With `CCN(CC)c1ccc(C(=C2C=CC(C)C=C2)c2ccc(N(CC)CC)cc2)cc1` (stereo not drawn) [TPM 6] the “relative activity among compounds tested” value (Leishmania amazonensis) was “most active compound”, the growth inhibition (Leishmania amazonensis; 0.01 mcM, 48 hours) was 41% and the growth inhibition (Leishmania amazonensis; 0.05 mcM, 48 hours) was 59%. It also gave a growth inhibition (Leishmania amazonensis; 0.1 mcM, 48 hours) of 98%, a growth inhibition (Leishmania amazonensis; 0.5 mcM, 48 hours) of 98% and a growth inhibition (Leishmania amazonensis; 1 mcM, 48 hours) of 100%. For the same molecule, the growth inhibition (Leishmania amazonensis; 5 mcM, 48 hours) was 100%, the IC50 (Leishmania amazonensis; [10]) was ~20 nM and the IC50 (Leishmania amazonensis; [11]) was 20 nM. For the same molecule, the IC50 ([1]; D6; read-out: IC50 (nM) vs P. falciparum D6 (Chloroquine Sensitive)) was 61.7 nM, the “active / inactive in the malaria assay” value ([1]; summary over D6 and Dd2 strains) was “active” and the IC50 ([2]; Dd2; read-out: IC50 (nM) vs P. falciparum Dd2 (Multidrug Resistant)) was 48.9 nM.
With `CCN(CC)c1ccc(C(=C2C=C3CCc4ccccc4N(CCCN(C)C)C3=CC2)c2ccc(N(CC)CC)cc2)cc1` [TPM 2] the “activity in first experiment” value (Leishmania amazonensis) was “have shown activity”, the growth inhibition (Leishmania amazonensis; 1 mcM, 48 hours) was 72% and the IC50 (Leishmania amazonensis; [10]) was ~600 nM. The IC50 (Leishmania amazonensis; [11]) was 600 nM, the “number of parasite/ml of blood versus control” value (T. brucei; s.c. 1 mg/mice/day from day of infection) was “slightly less” and the “survival of infected mice” value (T. brucei; s.c. 1 mg/mice/day from day of infection, 5,000 parasites/mouse) was “died at day 4”.
For `CCN(CC)c1ccc(C(=C2C=CC3C(C[C@H](N)C(=O)O)=CNC3=C2)c2ccc(N(CC)CC)cc2)cc1` (stereo partly drawn) [TPM 5], the “activity in first experiment” value (Leishmania amazonensis) was “did not”.
In the case of `c1ccc([I+]c2ccccc2)cc1` [DPI, diphenyliodonium], the “decrease in ang-2 expression compared to control” value (ang-2 mRNA) is reported as 80%.
